The source of these data is patent publication US9732298B2, “Process for the treatment of liquefied hydrocarbon gas using 3-(amino) propane-1,2-diol compounds” (Dow Global Technologies LLC, priority 2012, dated 2017).

Series [1] in a line: Solubility of tested amine in heptane phase by gas chromatography (toluene internal standard). The conditions noted are these: GC peak area of tested amine in neat heptane phase; heptane 10 g, toluene 0.1 g, amine 2.5 g, mixed at 20° C. for 1 hour, decanted 15 minutes; average of three injections.
Experimental: A solution of heptane (10 g), toluene (0.1 g) and the tested amine (2.5 g) are mixed at 20° C. for 1 hours. The mixture is decanted for 15 minutes and the neat heptane phase is analyzed by gas chromatography using toluene as internal standard. The injection is repeated three times and peak areas of tested amine are averaged.
The nature of series [2]: pKa by automated Mettler Toledo titration. Format: physicochemical. The conditions noted are these: aqueous amine solution; 50 weight % aqueous amine solutions titrated with 0.5 N hydrochloric acid.

In series [1], `CNCC(O)CO` (stereo not drawn) [MAPD] gave an area counts of 176 counts. Moreover, the pKa in series [2] worked out at 9.7.

In turn, `NCC(O)CO` (stereo not drawn) [APD] yielded an area counts in series [1] of 0 counts. In series [2], this compound registered a pKa of 9.3.

For the compound `CN(CCO)CC(O)CO` (stereo not drawn) [HEMAPD], the area counts in series [1] is reported as 290 counts. This compound came in with a pKa in series [2] of 8.5.
